Reference: the supplement of paper PMC10883282

Key:
[1] = system: A204; assay: standardised AUC of viability dose-response curve (72 h) (fraction (0-1)); higher = less growth inhibition (more resistant)
Procedure, shortened: (§1)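 Sarcoma cell lines in 384-well plates were treated in triplicate for 72 h with 2.5 µl of a compound dilution series, made in 1:3 steps from 10 mM to 0.0002 mM on the compound plate. ATPLite viability was scaled from 1 (full) to 0 (none) and fitted per drug and cell line with a four-parameter log-logistic model. The values are standardised areas under the dose-response curve in log-dose space, from a modified drexplorer computeAUC. On that scale, 1 means no response and 0 means full response.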

[2] = system: SW684; assay: as above
Procedure, shortened: as §1

[3] = system: KHOS-NP; assay: as above
Procedure, shortened: as §1

[4] = system: HT1080; assay: as above
Procedure, shortened: as §1

[5] = system: SYO-1; assay: as above
Procedure, shortened: as §1

[6] = system: SW872; assay: as above
Procedure, shortened: as §1

[7] = system: SW982; assay: as above
Procedure, shortened: as §1

[8] = system: RD-ES; assay: as above
Procedure, shortened: as §1

[9] = system: SK-LMS-1; assay: as above
Procedure, shortened: as §1

[10] = system: SW1353; assay: as above
Procedure, shortened: as §1

[11] = system: MES-SA; assay: as above
Procedure, shortened: as §1

[12] = system: HS729; assay: as above
Procedure, shortened: as §1

[13] = system: RD; assay: as above
Procedure, shortened: as §1

[14] = system: VA-ES-BJ; assay: as above
Procedure, shortened: as §1

[15] = system: G401; assay: as above
Procedure, shortened: as §1

[16] = system: SK-ES-1; assay: as above
Procedure, shortened: as §1

[17] = system: KHOS-240S; assay: as above
Procedure, shortened: as §1

[18] = system: KHOS-NP; assay: relative viability vs DMSO control (72 h) (fraction); higher = more viable cells
Procedure, shortened: (§2)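 Relative viability was measured with ATPLite and expressed as percent growth, averaged across up to triplicate wells. Sarcoma cell lines had been seeded in 384-well plates to reach 80–90% confluence, dosed after 24 h, and incubated 72 h at 37 °C, 5% CO2. All data were rescaled on a scale where 1 is full and 0 is none.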

[19] = system: HT1080; assay: as above
Procedure, shortened: as §2

[20] = system: RD-ES; assay: as above
Procedure, shortened: as §2

[21] = system: RD; assay: as above
Procedure, shortened: as §2

[22] = system: VA-ES-BJ; assay: as above
Procedure, shortened: as §2

CNC(=O)c1nnc(NC(=O)C2CC2)cc1Nc1cccc(-c2ncn(C)n2)c1OC
Settings | standardised AUC
[1] | 0.978
[2] | 0.991
[3] | 0.993
[4] | 0.992
[5] | 0.989
[6] | 0.983
[7] | 0.983
[8] | 0.99
[9] | 0.988
[10] | 0.986
[11] | 0.984
[12] | 0.956
[13] | 0.983
[14] | 0.986
[15] | 0.99
[16] | 0.958
[17] | 0.976

relative viability
Settings | [18] | [19] | [20] | [21] | [22]
0.00017 µM | 1.07 | 1.07 | 0.987 | 1.1 | 0.986
0.00051 µM | 1.08 | 1.04 | 1.019 | 1.11 | 0.996
0.00152 µM | 1.063 | 1.05 | 1.01 | 1.12 | 1.02
0.00457 µM | 1.06 | 1.03 | 0.988 | 1.12 | 1.04
0.01372 µM | 1.07 | 1.02 | 1.02 | 1.1 | 1.035
0.04115 µM | 1.076 | 1.05 | 1.02 | 1.09 | 1.03
0.1235 µM | 1.08 | 1.01 | 1.05 | 1.11 | 1.03
0.3704 µM | 1.07 | 1.042 | 1.06 | 1.08 | 1.01
1.111 µM | 1.061 | 1.1 | 1 | 1.1 | 1.04
3.333 µM | 1.09 | 1.11 | 0.998 | 1.09 | 0.974
10 µM | 1.05 | 0.995 | 0.847 | 0.994 | 0.828

COc1cc(CCc2cc(NC(=O)c3ccc(N4CC(C)NC(C)C4)cc3)n[nH]2)cc(OC)c1 (centres undefined) [AZD-4547]
Settings | standardised AUC
[1] | 0.742
[2] | 0.965
[3] | 0.947
[4] | 0.965
[5] | 0.698
[6] | 0.934
[7] | 0.91
[8] | 0.903
[9] | 0.988
[10] | 0.873
[11] | 0.857
[12] | 0.752
[13] | 0.948
[14] | 0.987
[15] | 0.729
[16] | 0.869
[17] | 0.831

relative viability
Settings | [18] | [19] | [20] | [21] | [22]
0.00017 µM | 1.079 | 1.085 | 0.946 | 1.03 | 1.05
0.00051 µM | 1.1 | 1.1 | 0.96 | 1.08 | 1.01
0.00152 µM | 1.07 | 1.08 | 0.959 | 1.07 | 1.03
0.00457 µM | 1.08 | 1.07 | 0.961 | 1.07 | 1.02
0.01372 µM | 1.048 | 1.06 | 0.95 | 1.08 | 1.01
0.04115 µM | 1.03 | 1.01 | 0.9048 | 1.1 | 0.975
0.1235 µM | 1.03 | 1.04 | 0.89 | 1.063 | 0.983
0.3704 µM | 1.01 | 1.08 | 0.871 | 1.08 | 1.02
1.111 µM | 1.02 | 1.04 | 0.808 | 1.06 | 1.07
3.333 µM | 1 | 1.04 | 0.6084 | 0.858 | 0.987
10 µM | 0.927 | 0.859 | 0.173 | 0.419 | 0.681

CCN1C(=O)N(c2c(F)c(OC)cc(OC)c2F)Cc2cnc3[nH]c(CN4CCOCC4)cc3c21 [Pemigatinib]
relative viability
Settings | [18] | [19] | [20] | [21] | [22]
0.00017 µM | 1.09 | 1.05 | 0.959 | 1.02 | 1.02
0.00051 µM | 1.06 | 1.09 | 0.951 | 1.07 | 1.03
0.00152 µM | 1.088 | 1.06 | 0.953 | 1.06 | 1.023
0.00457 µM | 1.088 | 1.06 | 0.959 | 1.06 | 1.011
0.01372 µM | 1.055 | 1.036 | 0.964 | 1.04 | 1.04
0.04115 µM | 1.065 | 1.1 | 0.955 | 1.04 | 1.05
0.1235 µM | 1.07 | 1.09 | 0.952 | 1.03 | 1.036
0.3704 µM | 1.05 | 1.07 | 0.958 | 1.04 | 1.04
1.111 µM | 1.06 | 1.104 | 0.859 | 0.946 | 0.956
3.333 µM | 1.08 | 0.875 | 0.7215 | 0.7043 | 0.775
10 µM | 1.05 | 0.807 | 0.54 | 0.665 | 0.702

COc1cc(OC)c(/C=C/S(=O)(=O)Cc2ccc(OC)c(NCC(=O)O)c2)c(OC)c1 [Rigosertib]
relative viability
Settings | [18] | [19] | [20] | [21] | [22]
0.00017 µM | 1.09 | 1.07 | 0.999 | 1.08 | 1.05
0.00051 µM | 1.09 | 1.03 | 1 | 1.09 | 1.03
0.00152 µM | 1.1 | 1.07 | 1 | 1.08 | 1.02
0.00457 µM | 1.11 | 1.06 | 0.993 | 1.094 | 1.03
0.01372 µM | 1.1 | 1.05 | 1.01 | 1.05 | 1.05
0.04115 µM | 1.11 | 1.08 | 1 | 1.04 | 0.961
0.1235 µM | 1.08 | 1.06 | 0.732 | 0.825 | 0.772
0.3704 µM | 0.704 | 0.412 | 0.143 | 0.372 | 0.53
1.111 µM | 0.478 | 0.0983 | 0.0474 | 0.215 | 0.43
3.333 µM | 0.414 | 0.0596 | 0.031 | 0.23 | 0.403
10 µM | 0.357 | 0.0541 | 0.027 | 0.256 | 0.2992

COCCNc1cc(NC(=O)N2CCCc3cc(CN4CCN(C)CC4=O)c(C=O)nc32)ncc1C#N [Roblitinib]
relative viability
Settings | [18] | [19] | [20] | [21] | [22]
0.00017 µM | 1.05 | 1 | 0.972 | 1.08 | 1.03
0.00051 µM | 1.03 | 1.04 | 0.981 | 1.074 | 1.01
0.00152 µM | 1.04 | 0.971 | 0.986 | 1.053 | 1
0.00457 µM | 1.04 | 0.9973 | 0.965 | 1.08 | 1.02
0.01372 µM | 1.05 | 0.951 | 0.968 | 1.08 | 1.02
0.04115 µM | 1.04 | 1.04 | 0.9621 | 1.09 | 1.03
0.1235 µM | 1.06 | 1.05 | 0.958 | 1.1 | 1.04
0.3704 µM | 1.05 | 1.07 | 0.952 | 1.118 | 1.03
1.111 µM | 1.05 | 0.952 | 0.936 | 1.04 | 1.04
3.333 µM | 1.04 | 1.029 | 0.884 | 1.08 | 0.999
10 µM | 1.02 | 0.997 | 0.867 | 1.01 | 0.968

Cc1cc2cc(Oc3ccnc(Nc4cccc(CS(=O)(=O)NCCN(C)C)c4)n3)ccc2[nH]1 [Sulfatinib]
relative viability
Settings | [18] | [19] | [20] | [21] | [22]
0.00017 µM | 1.05 | 1.023 | 1.02 | 1.074 | 1.03
0.00051 µM | 1.05 | 0.983 | 0.998 | 1.09 | 1.03
0.00152 µM | 1.03 | 0.997 | 1.01 | 1.09 | 1.02
0.00457 µM | 1.006 | 1.03 | 0.996 | 1.123 | 1.03
0.01372 µM | 1.03 | 1.03 | 1.023 | 1.1 | 1.02
0.04115 µM | 1.019 | 1.03 | 1 | 1.094 | 1.02
0.1235 µM | 1.04 | 1.01 | 1 | 1.12 | 1
0.3704 µM | 1.026 | 1.044 | 1.01 | 1.09 | 1.04
1.111 µM | 1.01 | 0.969 | 0.992 | 1.07 | 1.08
3.333 µM | 1.01 | 1.05 | 0.87 | 0.981 | 1.04
10 µM | 0.963 | 0.878 | 0.579 | 0.456 | 0.486

CCN(CC)CCNC(=O)c1c(C)[nH]c(/C=C2\C(=O)Nc3ccc(F)cc32)c1C [Sunitinib]
relative viability
Settings | [18] | [19] | [20] | [21] | [22]
0.00017 µM | 1.04 | 1.13 | 0.955 | 1.11 | 1.04
0.00051 µM | 1.06 | 1.051 | 0.952 | 1.11 | 1.03
0.00152 µM | 1.05 | 1.1 | 0.968 | 1.13 | 1.04
0.00457 µM | 1.05 | 1.06 | 0.97 | 1.13 | 1.04
0.01372 µM | 1.06 | 1.08 | 0.964 | 1.12 | 1.05
0.04115 µM | 1.047 | 1.07 | 0.958 | 1.11 | 1.045
0.1235 µM | 1.069 | 1.11 | 0.895 | 1.14 | 1.014
0.3704 µM | 1.065 | 1.14 | 0.752 | 1.1 | 0.962
1.111 µM | 0.973 | 1.06 | 0.276 | 0.958 | 0.745
3.333 µM | 0.381 | 0.113 | 0.0097 | 0.0418 | 0.597
10 µM | 0.0257 | 0.00267 | 0.00923 | 0.00227 | -0.00367
